Like-named read-outs stand apart in the source and are kept apart here.
Experiments:
PDK1 = molecular target: T1, PDK1 (Homo sapiens, UniProt O15530); test: Kinase profiling PDK1; assay type: biochemical; conditions: for remaining activity at 100 µM: read-out: residual kinase activity, PDK1
T1 sequence (O15530 1-556): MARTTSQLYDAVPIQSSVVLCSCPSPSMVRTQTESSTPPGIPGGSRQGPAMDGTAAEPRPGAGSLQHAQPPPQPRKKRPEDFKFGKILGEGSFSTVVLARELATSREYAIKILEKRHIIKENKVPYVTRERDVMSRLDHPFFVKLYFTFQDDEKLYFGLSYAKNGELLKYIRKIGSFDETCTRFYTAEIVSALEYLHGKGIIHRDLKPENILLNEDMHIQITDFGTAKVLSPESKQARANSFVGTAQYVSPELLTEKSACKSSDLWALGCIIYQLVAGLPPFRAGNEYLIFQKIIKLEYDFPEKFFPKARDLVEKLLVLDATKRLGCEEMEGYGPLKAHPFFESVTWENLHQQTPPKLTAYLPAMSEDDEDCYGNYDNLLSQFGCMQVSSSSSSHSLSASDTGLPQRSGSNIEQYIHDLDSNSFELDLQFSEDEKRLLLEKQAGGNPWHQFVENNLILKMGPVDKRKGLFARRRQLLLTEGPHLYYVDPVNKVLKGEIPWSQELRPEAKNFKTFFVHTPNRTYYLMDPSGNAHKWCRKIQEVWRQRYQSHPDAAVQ
Excerpt: (§1) Any value less that 25 is considered to be highly significant inhibition.

IRAK4 = molecular target: T2, IRAK4 (Homo sapiens, UniProt Q9NWZ3); test: Kinase profiling IRAK4; assay type: biochemical; conditions: read-out: residual kinase activity, IRAK4
T2 sequence (Q9NWZ3 1-460): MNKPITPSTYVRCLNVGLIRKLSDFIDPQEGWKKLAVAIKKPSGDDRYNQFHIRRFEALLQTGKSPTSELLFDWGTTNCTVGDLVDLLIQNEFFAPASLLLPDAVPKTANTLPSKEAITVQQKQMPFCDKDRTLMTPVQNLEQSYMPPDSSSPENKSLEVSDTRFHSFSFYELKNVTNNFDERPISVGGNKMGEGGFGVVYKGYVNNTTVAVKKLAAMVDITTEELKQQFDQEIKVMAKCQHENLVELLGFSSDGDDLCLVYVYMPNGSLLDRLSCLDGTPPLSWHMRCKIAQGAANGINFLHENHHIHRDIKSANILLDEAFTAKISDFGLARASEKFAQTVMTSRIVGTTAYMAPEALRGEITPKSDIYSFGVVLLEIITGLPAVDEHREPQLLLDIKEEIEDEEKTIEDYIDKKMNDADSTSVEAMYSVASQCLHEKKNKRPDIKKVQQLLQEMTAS
Excerpt: as §1

MARK3 = MARK3 (Homo sapiens, UniProt P27448); test: Kinase profiling MARK3; assay type: biochemical; conditions: read-out: residual kinase activity, MARK3
Excerpt: as §1

VEG-FR = test: Kinase profiling VEG-FR; assay type: biochemical
Excerpt: as §1

Src = Src (Homo sapiens, UniProt P12931); test: Kinase profiling Src; assay type: biochemical; conditions: read-out: residual kinase activity, Src
Excerpt: as §1

PIM1 = PIM1 (Homo sapiens, UniProt P11309); test: Kinase profiling PIM1; assay type: biochemical; conditions: read-out: residual kinase activity, PIM1
Excerpt: as §1

TBK1 = molecular target: T3, TBK1 (Homo sapiens, UniProt Q9UHD2); test: Kinase profiling TBK1; assay type: biochemical; conditions: read-out: residual kinase activity, TBK1
T3 sequence (Q9UHD2 1-729): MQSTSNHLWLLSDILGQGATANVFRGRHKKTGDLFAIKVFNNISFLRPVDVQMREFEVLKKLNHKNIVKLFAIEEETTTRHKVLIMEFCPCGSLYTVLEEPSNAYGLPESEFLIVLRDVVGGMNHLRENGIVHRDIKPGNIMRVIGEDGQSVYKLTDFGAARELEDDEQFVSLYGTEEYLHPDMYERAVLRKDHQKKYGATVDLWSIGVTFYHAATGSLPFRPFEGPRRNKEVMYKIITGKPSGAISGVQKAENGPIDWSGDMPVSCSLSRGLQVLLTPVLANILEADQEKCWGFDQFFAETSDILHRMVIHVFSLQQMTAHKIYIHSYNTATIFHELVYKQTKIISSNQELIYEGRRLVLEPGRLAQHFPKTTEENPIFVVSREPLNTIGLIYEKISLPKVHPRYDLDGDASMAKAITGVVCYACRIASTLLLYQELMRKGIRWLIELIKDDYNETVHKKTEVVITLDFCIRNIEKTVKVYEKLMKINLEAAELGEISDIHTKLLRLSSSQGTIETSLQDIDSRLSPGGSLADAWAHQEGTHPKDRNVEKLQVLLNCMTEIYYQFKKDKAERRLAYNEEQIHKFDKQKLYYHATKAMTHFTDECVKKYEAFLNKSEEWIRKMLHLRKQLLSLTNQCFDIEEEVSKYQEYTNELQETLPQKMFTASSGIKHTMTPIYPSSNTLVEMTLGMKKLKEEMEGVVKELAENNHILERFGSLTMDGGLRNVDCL
Excerpt: as §1

SYK = SYK (Homo sapiens, UniProt P43405); test: Kinase profiling SYK; assay type: biochemical; conditions: read-out: residual kinase activity, SYK
Excerpt: as §1

DYRK1A = DYRK1A (Homo sapiens, UniProt Q13627); test: DYRK 1A assay (kinase profiling); assay type: biochemical; conditions: read-out: residual kinase activity, DYRK1A
Experimental: Assays are stopped by addition of 5 μl of 0.5 M (3%) orthophosphoric acid and then harvested onto P81 Unifilter plates with a wash buffer of 50 mM orthophosphoric acid.
as §1

RSK1 = RSK1 (Homo sapiens, UniProt Q15418); test: Kinase profiling RSK1; assay type: biochemical; conditions: for remaining activity at 100 µM: read-out: residual kinase activity, RSK1
Excerpt: as §1

EF2K = EF2K (Homo sapiens, UniProt O00418); test: Kinase profiling EF2K; assay type: biochemical; conditions: read-out: residual kinase activity, EF2K
Excerpt: as §1

Lck = Lck (Homo sapiens, UniProt P06239); test: Kinase profiling Lck; assay type: biochemical; conditions: read-out: residual kinase activity, Lck
Excerpt: as §1

HIPK2 = HIPK2 (Homo sapiens, UniProt Q9H2X6); test: Kinase profiling HIPK2; assay type: biochemical; conditions: read-out: residual kinase activity, HIPK2
Excerpt: as §1

AMPK (hum) = test: Kinase profiling AMPK (hum); assay type: biochemical, human
Excerpt: as §1

[1] = 100 micromolar inhibitor concentration, 100 is no change
[2] = 100 micromolar inhibitor, 100 = no change

Sequence of MARK3 (P27448 whole entry, species assumed): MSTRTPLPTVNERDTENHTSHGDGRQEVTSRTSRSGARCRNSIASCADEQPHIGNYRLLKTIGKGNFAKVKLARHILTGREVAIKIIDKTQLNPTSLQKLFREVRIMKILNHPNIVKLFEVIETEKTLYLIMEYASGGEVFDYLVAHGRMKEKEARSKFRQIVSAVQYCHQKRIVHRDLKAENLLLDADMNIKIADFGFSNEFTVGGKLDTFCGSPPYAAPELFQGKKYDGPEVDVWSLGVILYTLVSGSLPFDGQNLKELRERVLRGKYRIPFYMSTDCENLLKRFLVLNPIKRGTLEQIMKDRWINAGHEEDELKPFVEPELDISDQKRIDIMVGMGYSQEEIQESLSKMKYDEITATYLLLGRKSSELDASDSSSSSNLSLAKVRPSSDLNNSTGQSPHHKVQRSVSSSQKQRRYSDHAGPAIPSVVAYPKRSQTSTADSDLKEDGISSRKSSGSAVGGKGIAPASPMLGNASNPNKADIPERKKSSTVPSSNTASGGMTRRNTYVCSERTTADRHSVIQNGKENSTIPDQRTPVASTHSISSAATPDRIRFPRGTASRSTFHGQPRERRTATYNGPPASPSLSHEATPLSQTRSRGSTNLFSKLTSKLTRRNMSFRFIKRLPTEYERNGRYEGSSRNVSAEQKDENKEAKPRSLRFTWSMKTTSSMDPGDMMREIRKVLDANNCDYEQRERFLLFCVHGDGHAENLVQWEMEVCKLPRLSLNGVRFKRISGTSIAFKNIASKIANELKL
Sequence of HIPK2 (Q9H2X6 whole entry, species assumed): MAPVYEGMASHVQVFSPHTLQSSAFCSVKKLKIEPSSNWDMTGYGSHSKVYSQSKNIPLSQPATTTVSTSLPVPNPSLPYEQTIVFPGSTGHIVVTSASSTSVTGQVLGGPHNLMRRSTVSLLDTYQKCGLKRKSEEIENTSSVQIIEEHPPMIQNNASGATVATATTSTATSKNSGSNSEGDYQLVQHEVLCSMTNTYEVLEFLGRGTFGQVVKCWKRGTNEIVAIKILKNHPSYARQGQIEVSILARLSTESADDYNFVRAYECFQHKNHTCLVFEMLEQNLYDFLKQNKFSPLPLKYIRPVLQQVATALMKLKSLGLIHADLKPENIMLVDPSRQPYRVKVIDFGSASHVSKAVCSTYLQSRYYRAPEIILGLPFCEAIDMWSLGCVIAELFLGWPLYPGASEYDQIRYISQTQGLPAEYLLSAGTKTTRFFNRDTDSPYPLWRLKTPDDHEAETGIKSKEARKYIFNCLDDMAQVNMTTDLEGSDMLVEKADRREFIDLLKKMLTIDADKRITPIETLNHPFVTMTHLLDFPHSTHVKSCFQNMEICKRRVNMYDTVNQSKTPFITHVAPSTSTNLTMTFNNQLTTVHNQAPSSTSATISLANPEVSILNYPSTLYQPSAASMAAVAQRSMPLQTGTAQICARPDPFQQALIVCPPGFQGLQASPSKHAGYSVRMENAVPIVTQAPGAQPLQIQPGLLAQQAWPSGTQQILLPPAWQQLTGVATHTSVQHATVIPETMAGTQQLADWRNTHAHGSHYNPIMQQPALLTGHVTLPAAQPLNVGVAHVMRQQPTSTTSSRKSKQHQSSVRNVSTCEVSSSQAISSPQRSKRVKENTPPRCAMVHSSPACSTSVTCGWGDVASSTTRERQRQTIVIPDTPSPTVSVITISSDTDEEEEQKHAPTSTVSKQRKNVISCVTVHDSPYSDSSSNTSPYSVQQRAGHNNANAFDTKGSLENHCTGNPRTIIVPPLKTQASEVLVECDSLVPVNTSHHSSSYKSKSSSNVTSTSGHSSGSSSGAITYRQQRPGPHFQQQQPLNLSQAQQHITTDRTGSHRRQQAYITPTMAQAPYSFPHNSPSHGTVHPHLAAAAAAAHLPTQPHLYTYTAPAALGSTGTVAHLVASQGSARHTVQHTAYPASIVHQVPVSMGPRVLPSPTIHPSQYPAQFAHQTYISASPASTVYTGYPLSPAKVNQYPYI
Sequence of PIM1 (P11309 whole entry, species assumed): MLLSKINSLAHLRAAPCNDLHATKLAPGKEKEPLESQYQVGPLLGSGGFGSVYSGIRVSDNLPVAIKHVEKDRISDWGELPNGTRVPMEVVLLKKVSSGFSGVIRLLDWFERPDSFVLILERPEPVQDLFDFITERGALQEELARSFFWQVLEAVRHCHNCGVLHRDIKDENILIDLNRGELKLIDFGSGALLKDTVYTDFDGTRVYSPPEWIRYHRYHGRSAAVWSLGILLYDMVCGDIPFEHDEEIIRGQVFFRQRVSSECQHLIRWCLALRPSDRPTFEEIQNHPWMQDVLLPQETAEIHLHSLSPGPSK
Sequence of Src (P12931 whole entry, species assumed): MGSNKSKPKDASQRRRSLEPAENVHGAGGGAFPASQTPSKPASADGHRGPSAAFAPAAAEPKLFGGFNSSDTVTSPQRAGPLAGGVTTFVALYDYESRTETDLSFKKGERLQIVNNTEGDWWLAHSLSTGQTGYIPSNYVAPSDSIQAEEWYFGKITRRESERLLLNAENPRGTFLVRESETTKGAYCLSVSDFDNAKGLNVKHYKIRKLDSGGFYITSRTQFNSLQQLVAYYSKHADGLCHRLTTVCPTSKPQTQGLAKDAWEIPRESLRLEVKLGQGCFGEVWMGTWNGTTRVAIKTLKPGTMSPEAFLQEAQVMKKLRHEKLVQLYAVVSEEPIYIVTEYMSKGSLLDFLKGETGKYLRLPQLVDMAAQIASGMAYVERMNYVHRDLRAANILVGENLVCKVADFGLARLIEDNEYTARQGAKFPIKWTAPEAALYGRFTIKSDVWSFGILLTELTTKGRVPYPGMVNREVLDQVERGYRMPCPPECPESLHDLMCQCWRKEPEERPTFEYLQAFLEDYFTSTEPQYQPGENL
Sequence of Lck (P06239 whole entry, species assumed): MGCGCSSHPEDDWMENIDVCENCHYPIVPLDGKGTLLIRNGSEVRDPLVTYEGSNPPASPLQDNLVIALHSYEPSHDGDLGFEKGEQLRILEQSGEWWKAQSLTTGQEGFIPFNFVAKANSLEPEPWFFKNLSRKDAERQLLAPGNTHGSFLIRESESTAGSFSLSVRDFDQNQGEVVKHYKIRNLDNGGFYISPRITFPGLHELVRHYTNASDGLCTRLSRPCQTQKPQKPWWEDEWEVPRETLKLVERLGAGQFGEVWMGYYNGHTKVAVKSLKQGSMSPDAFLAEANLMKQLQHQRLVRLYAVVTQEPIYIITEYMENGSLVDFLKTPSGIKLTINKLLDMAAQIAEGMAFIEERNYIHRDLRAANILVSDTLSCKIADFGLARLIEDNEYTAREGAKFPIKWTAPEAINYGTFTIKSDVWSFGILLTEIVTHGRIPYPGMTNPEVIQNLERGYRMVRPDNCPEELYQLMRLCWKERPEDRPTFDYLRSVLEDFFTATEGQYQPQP
Sequence of RSK1 (Q15418 whole entry, species assumed): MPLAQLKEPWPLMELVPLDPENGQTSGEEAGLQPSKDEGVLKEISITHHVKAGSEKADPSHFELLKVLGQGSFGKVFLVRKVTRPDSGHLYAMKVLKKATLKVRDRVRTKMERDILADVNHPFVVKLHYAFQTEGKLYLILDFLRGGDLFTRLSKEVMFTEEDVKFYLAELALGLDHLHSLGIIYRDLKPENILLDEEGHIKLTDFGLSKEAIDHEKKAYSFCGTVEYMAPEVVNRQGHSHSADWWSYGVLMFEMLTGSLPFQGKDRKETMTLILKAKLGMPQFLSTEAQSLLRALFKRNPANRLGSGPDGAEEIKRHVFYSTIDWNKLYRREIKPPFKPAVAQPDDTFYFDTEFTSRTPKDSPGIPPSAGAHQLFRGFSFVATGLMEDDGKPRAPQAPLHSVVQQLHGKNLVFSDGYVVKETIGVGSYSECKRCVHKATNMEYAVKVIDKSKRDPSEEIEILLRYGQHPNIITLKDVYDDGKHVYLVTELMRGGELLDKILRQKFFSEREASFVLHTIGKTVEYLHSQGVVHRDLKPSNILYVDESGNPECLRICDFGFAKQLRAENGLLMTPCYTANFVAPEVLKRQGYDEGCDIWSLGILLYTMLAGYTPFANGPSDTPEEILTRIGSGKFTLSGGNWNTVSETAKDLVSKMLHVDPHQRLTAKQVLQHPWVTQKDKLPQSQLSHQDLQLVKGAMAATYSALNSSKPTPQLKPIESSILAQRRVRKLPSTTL

CC(=O)Nc1nc2cc(O)ccc2s1 [Compound 01-66, N-(5-hydroxybenzo[d]thiazol-2-yl)acetamide]
remaining activity at 100 µM (PDK1): 69% | remaining activity at 100 µM (IRAK4): 18% | remaining activity at 100 µM (MARK3): 34% | residual kinase activity, VEG-FR (VEG-FR; [1]): 24 | remaining activity at 100 µM (Src): 45% | remaining activity at 100 µM (PIM1): 12% | remaining activity at 100 µM (TBK1): 60% | remaining activity at 100 µM (SYK): 82% | remaining activity at 100 µM (DYRK1A): 5% | remaining activity at 100 µM (RSK1): 44% | remaining activity at 100 µM (EF2K): 76% | remaining activity at 100 µM (Lck): 69% | remaining activity at 100 µM (HIPK2): 20%

CC(=O)Nc1nc2ccc(O)cc2s1 [Compound 01-71]
remaining activity at 100 µM (PDK1; [1]): 63% | remaining activity at 100 µM (IRAK4; [1]): 13% | remaining activity at 100 µM (MARK3; [1]): 46% | residual kinase activity, VEG-FR (VEG-FR; [1]): 9 | remaining activity at 100 µM (Src; [1]): 57% | remaining activity at 100 µM (PIM1; [1]): 19% | remaining activity at 100 µM (TBK1; [1]): 43% | remaining activity at 100 µM (SYK; [1]): 71% | remaining activity at 100 µM (DYRK1A; [1]): 20% | remaining activity at 100 µM (RSK1; [1]): 25% | remaining activity at 100 µM (EF2K; [1]): 75% | remaining activity at 100 µM (Lck; [1]): 192% | remaining activity at 100 µM (HIPK2; [1]): 14%

CC(=O)Nc1nc2ccc(C(F)(F)F)cc2s1 [Compound 01-90]
remaining activity at 100 µM (PDK1; [1]): 93% | remaining activity at 100 µM (IRAK4; [1]): 12% | remaining activity at 100 µM (MARK3; [1]): 61% | residual kinase activity, VEG-FR (VEG-FR; [1]): 8 | residual kinase activity, AMPK (hum) (AMPK (hum); [1]): 74 | remaining activity at 100 µM (Src; [1]): 63% | remaining activity at 100 µM (PIM1; [1]): 71% | remaining activity at 100 µM (TBK1; [1]): 83% | remaining activity at 100 µM (SYK; [1]): 100% | remaining activity at 100 µM (DYRK1A; [1]): 8% | remaining activity at 100 µM (RSK1; [1]): 74% | remaining activity at 100 µM (EF2K; [1]): 103% | remaining activity at 100 µM (Lck; [1]): 53% | remaining activity at 100 µM (HIPK2; [1]): 16%

CC(=O)Nc1nc2ccc(C#N)cc2s1 [Compound 01-94]
remaining activity at 100 µM (PDK1; [1]): 97% | remaining activity at 100 µM (IRAK4; [1]): 10% | remaining activity at 100 µM (MARK3; [1]): 50% | residual kinase activity, VEG-FR (VEG-FR; [1]): 11 | residual kinase activity, AMPK (hum) (AMPK (hum); [1]): 40 | remaining activity at 100 µM (Src; [1]): 94% | remaining activity at 100 µM (PIM1; [1]): 26% | remaining activity at 100 µM (TBK1; [1]): 41% | remaining activity at 100 µM (SYK; [1]): 86% | remaining activity at 100 µM (DYRK1A; [1]): 9% | remaining activity at 100 µM (RSK1; [1]): 51% | remaining activity at 100 µM (EF2K; [1]): 98% | remaining activity at 100 µM (Lck; [1]): 168% | remaining activity at 100 µM (HIPK2; [1]): 23%

CC(=O)Nc1cccc(NC(=O)c2nc3ccc(O)cc3s2)c1 [Compound 03-07, N-(3-acetamidophenyl)-6-hydroxybenzo[d]thiazole-2-carboxamide]
remaining activity at 100 µM (PDK1; [2]): 72% | remaining activity at 100 µM (IRAK4; [2]): 74% | remaining activity at 100 µM (MARK3; [2]): 72% | residual kinase activity, VEG-FR (VEG-FR; [2]): 28 | residual kinase activity, AMPK (hum) (AMPK (hum); [2]): 34 | remaining activity at 100 µM (Src; [2]): 101% | remaining activity at 100 µM (PIM1; [2]): 25% | remaining activity at 100 µM (TBK1; [2]): 92% | remaining activity at 100 µM (SYK; [2]): 102% | remaining activity at 100 µM (DYRK1A; [2]): 30% | remaining activity at 100 µM (RSK1; [2]): 48% | remaining activity at 100 µM (EF2K; [2]): 91% | remaining activity at 100 µM (Lck; [2]): 88% | remaining activity at 100 µM (HIPK2; [2]): 46%

CC(=O)Nc1cccc(C(=O)Nc2nc3ccc(O)cc3s2)c1 [Compound 03-58]
residual kinase activity, PDK1 (PDK1; [1]): 96 | residual kinase activity, RSK1 (RSK1; [1]): 35

CC(=O)NC(C)C(=O)Nc1nc2ccc(C(F)(F)F)cc2s1 (stereo not shown) [Compound 03-80]
residual kinase activity, PDK1 (PDK1; [1]): 86 | residual kinase activity, RSK1 (RSK1; [1]): 90

CC(=O)Nc1ccccc1C(=O)Nc1nc2ccc(O)cc2s1 [Compound 08-39]
residual kinase activity, PDK1 (PDK1; [1]): 66 | residual kinase activity, RSK1 (RSK1; [1]): 30

COc1ccc2sc(NC(=O)c3ccc(NC(C)=O)cc3)nc2c1 [MS:LY-2-77]
residual kinase activity, PDK1 (PDK1; [1]): 103 | residual kinase activity, RSK1 (RSK1; [1]): 85

COc1ccc2sc(NC(=O)c3cccc(NC(C)=O)c3)nc2c1 [MS:LY-2-85]
residual kinase activity, PDK1 (PDK1; [1]): 80 | residual kinase activity, RSK1 (RSK1; [1]): 54

CC(=O)Nc1ccc(C(=O)Nc2nc3cc(O)ccc3s2)cc1 [MS:LY-2-87]
residual kinase activity, PDK1 (PDK1; [1]): 69 | residual kinase activity, RSK1 (RSK1; [1]): 29

CC(=O)Nc1cccc(C(=O)Nc2nc3cc(O)ccc3s2)c1 [MS:LY-2-89]
residual kinase activity, PDK1 (PDK1; [1]): 44 | residual kinase activity, RSK1 (RSK1; [1]): 13
